# Measurements: publication PMC8623418, “Novel Multitarget Hydroxamic Acids with a Natural Origin CAP Group against Alzheimer’s Disease: Synthesis, Docking and Biological Evaluation” (Pharmaceutics, 2021)
# What was measured:
# 5xFAD transgenic mice = experiment: Morris Water Maze Test in 5xFAD mice; type: in vivo; conditions: for Mean latency time to hidden platform, first training day / Mean latency time to hidden platform, fourth training day: 15 mg/kg i.p. for 20 days, mean ± SEM; for Mean latency time to hidden platform, first training day: day 1; for Mean latency time to hidden platform, fourth training day: day 4
# Procedure: All animal procedures were approved by the Animal Care and Use Committee of IPAC RAS. For in vivo studies, 11-month-old male mice of the 5xFAD line (Tg(APPSwFlLon,PSEN1*M146L*L286V) 6799Vas/J) were used. The animals were housed in cages with free access to water and food in a room with a 12 h/12 h light–dark cycle, at a temperature of 23 ± 1 °C and humidity of 50 ± 5%. Before the series of experiments, animals were randomly divided into four groups (n = 8 per group): (1) wild-type group (C57BL6/j mouse line); (2) 5xFAD group; (3) 5xFAD + 15 group; and (4) 5xFAD + 25 group. Both compounds 15 and 25 were dissolved in saline solution and DMSO (10%) immediately before use and intraperitoneally administered to animals for 20 days at a dose of 15 mg/kg body weight for experiments. In the control group, the vehicle solution (saline and DMSO (10%), intraperitoneal) was administered with the same time schedule. The Morris Water Maze Test was performed based on the Morris paradigm, 1985, modified. This test allowed us to evaluate spatial learning and memory formation in mice. The experimental apparatus consisted of a circular pool (diameter, 150 cm; height, 60 cm; OpenScience, Russia) containing water at 22 ± 1 °C. The lighting conditions were as follows: dark side of the pool was 50 lx; bright side was 75 lx. The pool was equally divided into quadrants. A platform (diameter, 10 cm) was positioned inside the reservoir, placed 1 cm below the water surface in the target quadrant of the maze. The platform and pool were white with anti-glare coating, which, together with shadowless lamp lighting, created the effect of an invisible platform that was hidden under the water. As visual cues, we used 4 figures (OpenScience, Moscow, Russia) fixed on the racks and located at the pool sides. The test is based on two phases: the acquisition phase (training days) and the retention phase (probe trial) (Figure 7A). Initially, the training session was performed, during which each animal was placed into the water facing the pool wall. After placing, each animal was given 60 s to find and mount onto the hidden platform. […] Each mouse received training sessions, and the test was repeated four times for four consecutive days in acquisition training (sum 16 trials for training). All 4 start positions for each day (north, south, east, west) were deliberately randomized. The probe trial was performed on the 5th day after the training phase: there were no platform and the mice were given 90 s for swimming. The criteria for the effectiveness of learning and memory formation were the time spent in the target and wrong quadrants, the latency period, and the number of entries to the platform area.
# HDAC6 = biological target: T1, HDAC6 (Homo sapiens, UniProt Q9UBN7); experiment: HDAC6 enzyme activity, FLUOR DE LYS fluorometric kit; type: biochemical; conditions: mean ± SEM; read-out: IC50 HDAC6 Inhibitory Activity
# T1 construct: purchased Enzo Life Sciences (Enzo Biochem, New York, NY, USA)
# T1 sequence (Q9UBN7 1-1215): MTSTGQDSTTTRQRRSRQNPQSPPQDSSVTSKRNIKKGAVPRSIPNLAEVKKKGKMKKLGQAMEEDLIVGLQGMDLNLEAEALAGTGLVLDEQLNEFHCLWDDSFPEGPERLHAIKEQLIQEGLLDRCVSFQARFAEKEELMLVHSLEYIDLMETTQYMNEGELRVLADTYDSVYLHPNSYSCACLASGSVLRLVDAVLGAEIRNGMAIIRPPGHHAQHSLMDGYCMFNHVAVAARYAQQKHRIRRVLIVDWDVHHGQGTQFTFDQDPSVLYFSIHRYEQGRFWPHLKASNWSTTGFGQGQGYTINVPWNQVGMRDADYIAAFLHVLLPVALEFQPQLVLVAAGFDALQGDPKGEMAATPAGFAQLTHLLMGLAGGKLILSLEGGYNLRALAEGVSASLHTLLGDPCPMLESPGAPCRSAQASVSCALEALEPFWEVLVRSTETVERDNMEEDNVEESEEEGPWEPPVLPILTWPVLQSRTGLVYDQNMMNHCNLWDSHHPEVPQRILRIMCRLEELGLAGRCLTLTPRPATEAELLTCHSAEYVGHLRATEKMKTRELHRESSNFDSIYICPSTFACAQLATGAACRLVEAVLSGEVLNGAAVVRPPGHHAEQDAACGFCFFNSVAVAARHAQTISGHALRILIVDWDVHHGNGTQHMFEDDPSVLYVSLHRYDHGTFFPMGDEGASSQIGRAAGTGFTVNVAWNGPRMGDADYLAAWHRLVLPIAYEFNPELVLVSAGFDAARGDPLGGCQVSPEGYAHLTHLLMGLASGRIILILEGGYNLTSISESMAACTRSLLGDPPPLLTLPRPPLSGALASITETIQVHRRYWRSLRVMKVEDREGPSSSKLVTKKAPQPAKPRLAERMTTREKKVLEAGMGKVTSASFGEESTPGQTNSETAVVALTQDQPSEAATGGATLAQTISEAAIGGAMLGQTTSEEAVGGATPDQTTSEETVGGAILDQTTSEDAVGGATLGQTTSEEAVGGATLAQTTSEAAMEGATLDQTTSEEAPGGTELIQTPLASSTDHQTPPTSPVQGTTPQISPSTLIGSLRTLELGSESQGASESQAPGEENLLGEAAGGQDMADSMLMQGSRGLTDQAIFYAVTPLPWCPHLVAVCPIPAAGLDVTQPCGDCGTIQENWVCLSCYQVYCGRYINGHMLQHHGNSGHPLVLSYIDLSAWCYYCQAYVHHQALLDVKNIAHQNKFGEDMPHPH
# [1] = DPPH test of antiradical activity; conditions: substances at 100 μM, mean ± SEM
# Procedure: The DPPH test was used to examine antiradical activity based on the ability of a stable chromogen radical of 2,2-diphenyl-1-picrylhydrazyl (DPPH) to remove a hydrogen atom, which is accompanied by a change in the absorption maximum in the electronic absorption spectra. The amount of reduced DPPH was measured using a Cytation ™ 3 multifunctional plate analyzer (BioTek Instruments, Inc., Winooski, VT, USA) at a wavelength of 517 nm.
# The antiradical activity of the test compounds was evaluated by the DPPH test, based on the ability of antioxidants to donate an electron to the stable chromogen radical DPPH, converting it into a nonradical form and neutralizing its activity. […] The chromogenic free radical DPPH used in this test has a large size, and substances even with a similar chemical structure may have different antiradical properties due to spatially difficult access.
# [2] = 5th day, versus untreated 5xFAD
Compound,"Mean latency time to hidden platform, first training day (5xFAD transgenic mice) [s]","Mean latency time to hidden platform, fourth training day (5xFAD transgenic mice) [s]",Probe trial: entries to the platform zone (5xFAD transgenic mice; [2]),Probe trial: latency for entering the platform zone (5xFAD transgenic mice; [2]),"Platform search strategies (egocentric to allocentric navigation) (5xFAD transgenic mice; training phase, 15 mg/kg i.p.)",IC50 (HDAC6) [µM],"% of Activity, Antiradical Activity [1] [%]",Probe trial: time spent in the wrong quadrant (5xFAD transgenic mice; [2])
"O=C(CCCCCCC(=O)NC1C2CC3CC(C2)CC1C3)NO (centres unmarked) [compound 15, N^1-(Adamant-2-yl)-N^8-Hydroxyoctanediamide]",53.76 ± 2.79,34.28 ± 4.32,increased entries to the platform,significantly reduced the latency for entering the platform zone,normalization of this situation and the successful formation of the allocentric cognitive map,0.96 ± 0.01,19.70 ± 1.34,–
"O=C(/C=C/c1ccc(C(=O)NO)cc1)NC1C2CC3CC(C2)CC1C3 (centres unmarked) [compound 25, 4-((E)-3-((-Adamantan-2-yl)amino)-3-Oxoprop-1-en-1-yl)-N-Hydroxybenzamide]",53.46 ± 2.75,38.63 ± 3.01,improvement in these spatial memory parameters was also observed,improvement in these spatial memory parameters was also observed,–,6.52 ± 0.4,43.34 ± 1.42,significant differences were found in the time spent in the wrong quadrant
